Measurements taken from PMC5068747, “Using C. elegans Forward and Reverse Genetics to Identify New Compounds with Anthelmintic Activity” (PLoS Neglected Tropical Diseases, 2016).
Entries after “also recorded” stand apart in the source; their conditions may differ. Where two headings read alike, the source gives them in different places.

Tests used:
[1] = tested on: C. elegans VC2010; assay: Manual phenotyping pilot screen of 3,584 known compounds (CCBN library); type: in vivo, Caenorhabditis elegans; settings: dissecting microscope, positively confirmed drugs of CCBN library
[2] = tested on: C. elegans VC2010 (wild type); assay: WormScan screen of C. elegans growth, fecundity, motility and mortality; type: in vivo, Caenorhabditis elegans; settings: for IC50: read-out: Nematode IC50
Experimental: All compound libraries were stored in 96-well plates, with 80 drugs per plate (columns 1 and 12 left empty). A BioGrid BG600 pinning robot (Digilab / BioRobotics) was used for compound transfer. The robot uses a 96-pin tool (0.7 mm dia.) to transfer a nominal volume of 340 nL of compound. For retesting, compounds were hand pinned from the original library plates to assay plates using a single 0.7 mm dia. pin. The assay plates were 96-well clear flat-bottom microplates containing 2% χ1666 E.coli bacteria in 0.5X Liquid Nematode Growth Media (LNGM) plus cholesterol (Bacteria were mass-grown in rich media, and harvested by centrifugation to produce a thick paste of bacterial cells that was kept frozen at -20°C. Cells were resuspended at 2% W/V in 0.5X LNGM to produce liquid worm food). Using a COPAS Biosort (Union Biometrica), two L4 to young adult stage VC2010 worms were added to each well of the plate in a final volume of 45 μL. After five days of exposure to the compounds, the plates were scanned and the data analyzed. A five day time period was chosen to be able to observe effects over all stages of the life cycle and through at least one round of replication. The initial proof-of-principle primary screen was performed manually using a dissecting microscope. Phenotypes scored included decreased motility, reduced brood size, and/or death as described previously. For high throughput screening of the Chembridge and Maybridge compound libraries we used the program WormScan, which was adapted for screening 96-well flat-bottom LNGM plates. Using WormScan it was possible to screen four 96-well plates at a time. Plates were scanned twice, at a resolution of 1200 dots per inch, 16-bit grayscale, producing a jpeg image. The light intensity produced by the scanner was sufficient to cause negative phototaxis equivalent to a physical stimulus for mortality determination. The time required to scan four 96-well plates using an Epson Perfection V700 Photo Scanner was less than ten minutes. The time to screen a single plate was less than 1.2 minutes, with less than ten seconds between scans.
WormScan was used to screen for the same phenotypes as in the manual screen (reduced brood size, reduced behavior/motility response and increased mortality). Two sequential scans for each 96-well plate were aligned to a reference region of interest (ROI). Image analysis was based on a difference image score calculated for each ROI. The difference image score (WormScan score) was normalized using a “percent of control” method to derive a normalized WormScan score. […] Wild-type growth in 1% DMSO (Fig 1A) results in a normalized WormScan score of 100. Exposure to 50 nM ivermectin gives a score of 0 (Fig 1C), and complete absence of worms gives a score of 0 (Fig 1D). For the primary screen the WormScan score was calculated using custom macro scripts written for Fiji. For secondary screening and any subsequent studies the WormScan score was calculated using a standalone Java program (See supplemental). Probit regression of mortality was calculated using Mathematica 8.0.

[3] = tested on: Human embryonic kidney (HEK293) cells; assay: HEK293 viability, MTT colorimetric assay; type: cell-based; settings: read-out: Mammalian IC50
Experimental: Potential anthelmintic compounds identified from primary screening were further tested against mammalian cells and yeast to determine whether they had deleterious effects in those organisms. Human embryonic kidney (HEK293) cells were grown in Dulbecco’s Modified Eagle’s Medium (DMEM; Sigma) containing 5% fetal bovine serum (FBS; Sigma) in 96-well plates tissue culture plates. Compounds were added 24h post-plating at 10, 30, 100, or 300 μM final concentrations. Dimethyl sulfoxide (DMSO) was used as a negative control at 0.1%. Cells were treated for 24 or 48 hours, after which time viability was assessed using a 3-(4,5-dimethylthiazol-2-yl)-2,5-diphenyltetrazolium bromide (MTT) colorimetric assay. Percent viability was determined by comparing treatment values to DMSO control values.

[4] = tested on: S. cerevisiae yeast strain BY4743; assay: Yeast growth rate (OD600) dose titration; type: cell-based; settings: BY4743, YPD, growth rate reduced by 50%
Experimental: The S. cerevisiae yeast strain BY4743 (MATa/α his3Δ1/his3Δ1 leu2Δ0/leu2Δ0 LYS2/lys2Δ0 met15Δ0/MET15 ura3Δ0/ura3Δ0) was used for all yeast experiments and was grown using yeast extract peptone dextrose (YPD) media at pH 7 [52]. BY4743 was grown overnight to initial log phase and was then grown with the compound identified in the C. elegans assay. The growth rate was quantified by continuously monitoring the optical density of the liquid yeast growth at OD600. The compound was screened in a dose-titration in YPD as described. The IC50 was the concentration required to reduce the growth rate or Average G value by 50% compared to a vehicle control (2% DMSO).

Compound | Worm Reaction in Drug [1] | also measured
CC(=O)O[C@@]12C[C@@H](C)[C@@]3(O)[C@@H](C=C(CO)C[C@]4(O)C(=O)C(C)=C[C@@H]34)[C@@H]1C2(C)C [12-Deoxyphorbol 13-acetate] | SLOW only L1/2s (& orig adults), lots unhatched eggs | –
CC(=O)OCC1=C[C@H]2[C@@H]3C(C)(C)[C@]3(OC(=O)Cc3ccccc3)C[C@@H](C)[C@]2(O)[C@@H]2C=C(C)C(=O)[C@@]2(O)C1 [12-Deoxyphorbol 13-phenylacetate 20-acetate] | Adults DEAD, only L1s/2s, not starved | –
Cl.c1ccc([C@H]2CN3CCSC3=N2)cc1 [(-)-Tetramisole hydrochloride] | UNC! Paralyzed, lots of worms, 1 starved, 1 not | –
CNC(=O)O/N=C/C(C)(C)SC [Aldicarb] | UNC adults, but definitely STARVED | –
COc1cccc2c1cc([N+](=O)[O-])c1c(C(=O)O)cc3c(c12)OCO3 [Aristolochic acid A] | SLOW, 1:only L2s, not starved, 2:1 sterile adult? | –
CCCCNC(=O)n1c(NC(=O)OC)nc2ccccc21 [Benomyl, reference compound] | – | IC50 ([2]; Caenorhabditis elegans, 120 h): 60 µM; IC50 ([3]; Homo sapiens): 8 µM; IC50 ([4]; Saccharomyces cerevisiae): 750 µM
NNC(=O)CCn1c2ccc(Cl)cc2c2cc(Cl)ccc21 [CID 766260] | – | IC50 ([2]; C. elegans, 5 days exposure): 282 µM; IC50 [3]: 44 µM; IC50 [4]: 113 µM
O=C1c2ccc(-c3nc4cc(Cl)ccc4c(=O)o3)cc2C(=O)N1c1ccccc1-c1ccccc1 [CID 2222671] | – | IC50 ([2]; C. elegans, 5 days exposure): > 500 µM; IC50 [3]: 234 µM; IC50 [4]: > 1000 µM
N#CSCCCOc1ccccc1Br [CID 2238042] | – | IC50 ([2]; C. elegans, 5 days exposure): 357 µM; IC50 [3]: 67 µM; IC50 [4]: 338 µM
Fc1ccc(COc2ccc(-c3nnco3)cc2)cc1 [CID 2740991] | – | IC50 ([2]; C. elegans, 5 days exposure): 19 µM; IC50 [3]: 83 µM; IC50 [4]: > 1000 µM
Cc1csc2sc(C(=O)CC(=O)C(F)(F)F)c(C)c12 [CID 2743002] | – | IC50 ([2]; C. elegans, 5 days exposure): > 500 µM; IC50 [3]: 54 µM; IC50 [4]: 20 µM
Cc1nn(S(=O)(=O)c2ccccc2)c(C)c1Oc1ccc(Cl)cc1 [CID 2745791] | – | IC50 ([2]; C. elegans, 5 days exposure): 99 µM; IC50 [3]: 54 µM; IC50 [4]: > 1000 µM
COc1ccc(OCCNC(=O)c2c(F)cccc2Cl)cc1 [CID 2747279] | – | anthelmintic activity on retest of the 50 compounds most similar to CID 2747322 ([2]; C. elegans, re-pinned, two additional biological replicates): strong anthelmintic activity; IC50 ([2]; Caenorhabditis elegans, 120 h, C. elegans, 5 days exposure): 13 µM; IC50 ([3]; Homo sapiens): 190 µM; IC50 ([4]; Saccharomyces cerevisiae): > 1000 µM
CC[C@@]1(O)C(=O)OCc2c1cc1n(c2=O)Cc2cc3ccccc3nc2-1 [Camptothecin] | SLOW - progeny paralyzed, only adults moving, not starved; also recorded: SLOW 1 well only 3 worms (dead ones, unhatched eggs present), other starved, lots of babies, 2nd gen | –
CC[C@@]1(O)C(=O)OCc2c1cc1n(c2=O)Cc2cc3ccccc3nc2-1 [Camptothecine (S, +)] | unc-ish, few progeny, sickly gonads not developed properly ie. Adults but not eggs, etc. | –
CCOP(=S)(OCC)Oc1nc(Cl)c(Cl)cc1Cl [Chlorpyrifos] | both DEAD! | –
Cl.Clc1ccc(Cn2c(CN3CCCC3)nc3ccccc32)cc1 [Clemizole Hydrochloride] | mostly young ones, a few adults but look sterile, a little unc | –
COc1cc2c(cc1OC)[C@@H]1C(=O)c3ccc4c(c3O[C@@H]1CO2)C=CC(C)(C)O4 [Deguelin] | SLOW, VERY few progeny, not starved, not very mobile | –
COc1cc2c(cc1OC)[C@@H]1C(=O)c3ccc4c(c3O[C@@H]1CO2)CC(C(C)C)O4 (stereo partly shown) [Dihydrorotenone] | SLOW uncish only 1 gen ns | –

Compound | Worm Reaction in Drug [1] | also measured
COC(=O)Nc1nc2ccc(Sc3ccccc3)cc2[nH]1 [Fenbendazole] | UNC (lots of worms) | –
CN(C)c1ccc(C(=C2C=CC(=[N+](C)C)C=C2)c2ccc(N(C)C)cc2)cc1 [Gentian Violet] | SLOW! Ns, uncish, only 1 gen past | –
CCCCCC(=O)O[C@]1(C(C)=O)CC[C@H]2[C@@H]3CCC4=CC(=O)CC[C@]4(C)[C@H]3CC[C@@]21C [Hydroxyprogesterone Caproate] | slower, one starved one not | –
COC(=O)Nc1nc2ccc(SC(C)C)cc2[nH]1 [Methiazole] | UNC! Lots of worms | –
COP(=S)(OC)Oc1ccc([N+](=O)[O-])cc1 [Methyl Parathione] | SLOW, UNC, ns, 1 gen only | –
C=C(C)[C@@]12O[C@@]3(c4ccccc4)O[C@@H]1[C@@H]1[C@@H]4O[C@]4(CO)[C@@H](O)[C@]4(O)C(=O)C(C)=C[C@H]4[C@@]1(O3)[C@H](C)[C@H]2OC(=O)/C=C/C=C/c1ccccc1 [Mezerein] | Adults DEAD, only L1s/2s, not starved | –
CCCCc1ccc2[nH]c(NC(=O)OC)nc2c1 [Parbendazole] | UNC! Lots of worms in 1, not starved in 2 | –
CCCC(=O)O[C@@H]1[C@@H](C)[C@@]2(O)[C@@H](C=C(CO)C[C@]3(O)C(=O)C(C)=C[C@@H]23)[C@@H]2C(C)(C)[C@]12OC(=O)CCC [Phorbol 12, 13-dibutyrate] | SLOW only L1/2s (one gen. only), not starved | –
CC(Cc1ccccc1)NCCC(c1ccccc1)c1ccccc1 (stereo not shown) [Prenylamine Lactate] | few progeny, not starved stalls at late larval? | –
C=C1C([C@]2(C)C(CC(=O)OC)[C@@](C)(COC(C)=O)OC(=O)C[C@@H]2OC(C)=O)[C@@H](OC=O)[C@H](OC(=O)C(OC(C)=O)C(C)CC)[C@@]2(C)[C@H](c3ccoc3)CC(=O)C12O (stereo partly shown) [Prieuranin Acetate] | SLOW, barely 1 gen, ns; one well = only 1 worm | –
C=C1[C@@H]([C@@]2(C)[C@@H](OC(C)=O)CC(=O)O[C@](C)(COC(C)=O)[C@@H]2C(=O)OC)[C@@H](OC=O)[C@H](OC(=O)[C@H](O)[C@H](C)CC)[C@@]2(C)[C@H](c3ccoc3)CC(=O)[C@]12O [Prieurianin] | SLOW! Only orig adults, one well = dead, ns | –
O=C1c2ccc(O)c(O)c2C(=O)c2c(O)ccc(O)c21 [Quinalizarin] | SLOW, unc, ns | –
CCN(CC)C(=O)NC1C=C2c3cccc4[nH]cc(c34)C[C@H]2N(C)C1.O=C(O)/C=C\C(=O)O (stereo partly drawn) [R(+)-Lisuride hydrogen maleate] | UNCish, starved but slow, lots of worms | –
C=C(C)[C@H]1Cc2c(ccc3c2O[C@@H]2COc4cc(OC)c(OC)cc4[C@@H]2C3=O)O1 [Rotenone] | SLOW, only one gen., few, not starved | –
CC(C)[C@@]1(O)[C@@H](OC(=O)c2ccc[nH]2)[C@@]2(O)[C@@]3(C)C[C@]4(O)O[C@@]5([C@H](O)[C@@H](C)CC[C@]35O)[C@@]2(O)[C@@]14C [Ryanodine] | UNC! 1: lots and starved, 2: few, not starved, less uncish | –
COP(=O)(OC)C(O)C(Cl)(Cl)Cl (stereo not shown) [Trichlorfon] | VERY unhappy, unc-ish, a few dpy/hypercontracted animals | –
CC(C)(C)c1cc(/C=C(\C#N)C(N)=S)cc(C(C)(C)C)c1O [Tyrphostin AG 879] | SLOW! Only on 2nd gen, ns | –
COc1ccccc1NC(=O)Nc1nc(-c2cccnc2)nc2ccccc12 [VUF 5574] | uncish adults, starved | –
Avermectin B1 | adults DEAD | –
